No end group written: not given here.
Experiments:
HSV-1 (KOS) gL86 [1] = test: HSV-1 entry into HeLa cells (ONPG and X-gal); assay type: cell-based, herpes simplex virus type-1; settings: for blocking of HSV-1 entry/infection: HeLa cells, 60 min pre-treatment, 25 pfu/cell, 6 hr
Experimental: (§1) HSV-1 entry was assayed as described in Shukla et al., Cell 99:13-22 (1999). CHO-K1 cells were grown in 6-well plates to subconfluence and then transfected with 2.5 μg of expression plasmids for gD receptors nectin-1 (pBG38), HVEM (pBec10), 3-OST-3 isoform (pDS43), or pCDNA3.1 (empty vector) using LipofectAMINE (Gibco/BRL). At 16 h post-transfection, the cells were replated into 96-well dishes for pre-incubation with peptides at different concentrations for 60 min at room temperature. In parallel, natural target cells (HeLa, CF, and RPE) were also pre-treated with the peptides for the same duration. In all cases, unbound peptides were removed after washing 3× with PBS. Thereafter, cells were infected for 6 h with a recombinant virus, HSV-1 (KOS) gL86, at multiple plaque forming units (PFUs) and β-galactosidase assays were performed using either a soluble substrate o-nitrophenyl-β-D-galactopyranoside (ONPG at 3.0 mg/ml; ImmunoPure, Pierce) or X-gal (Sigma). For the soluble substrate, the enzymatic activity was measured at 410 nm using a micro-plate reader (Spectra Max 190, Molecular Devices, Sunnyvale, Calif.). For the X-gal assay, cells were fixed (2% formaldehyde and 0.2% glutaraldehyde) and permeabilized (2 mM MgCl2, 0.01% deoxycholate, and 0.02% nonidet NP-40 (Sigma)). 1 ml of β-galactosidase reagent (1.0 mg/ml X-gal in ferricyanide buffer) was added to each well and incubated at 37° C. for 90 min before the cells were examined using bright field microscopy under the 20× objectives of the inverted microscope (Zeiss Axiovert 100 M).
The ability of the G1 and G2 peptides to block HSV-1 entry into natural target cells (HeLa and primary cultures of human CF) was compared. A similar dosage response curve was generated when HeLa (FIG. 2A) or CF (FIG. 2B) were pre-treated with G1 or G2 peptides during HSV-1 entry. […] HeLa cells (FIG. 2A) and primary cultures of human corneal fibroblasts (CF) (FIG. 2B) were tested. Cells in 96-well plates were pre-treated for 60 min with indicated mM concentrations of G1, G2, or Cp peptides. Mock-treated cells (abbreviated as C) served as a control. Pretreated cells were infected with a β galactosidase-expressing recombinant virus HSV-1 (KOS) HSV-1 gL86 (25 pfu/cell) for 6 hr. Viral entry was quantitated as described above in reference to FIG. 1. Confirmation of HSV-1 entry blocking activity of G1, G2, and control (Cp) peptides on a per cell basis was obtained after cells were infected as described above followed by X-gal (1.0 mg/ml) staining (Right panels), which yields an insoluble blue product upon hydrolysis by β-galactosidase expressed from the input viral genomes. […] Microscopy was performed using a 20× objective of Zeiss Axiovert 100.

HSV-1 (KOS) gL86 [2] = test: HSV-1 entry assay in CHO-K1 cells expressing gD receptors (3-OST-3, nectin-1, HVEM); assay type: cell-based, herpes simplex virus type-1; settings: CHO-K1 cells expressing one of three gD receptors; dose-dependent
Experimental: as §1
Peptide sequences from individual plaques were deduced by determining the nucleotide sequences of the portion of the phage genome that encoded them. The predicted peptide sequences of about 200 plaques were determined and sorted into two groups on the basis of their targets. […] After 6 hr, the cells were washed, permeabilized, and incubated with ONPG substrate (3.0 mg/ml) for quantitation of β-galactosidase activity expressed from the input viral genome. The enzymatic activity was measured at an optical density of 410 nm (OD410). […]

HSV-1 (KOS) = test: Mouse cornea model of HSV-1 infection (immunohistochemistry); assay type: in vivo, BALB/c mice
Experimental: BALB/c mice with pre-scarred corneal upper surface were treated with PBS-based eye drops containing 0.5 mM G1, G2, or control peptide followed by inoculation of HSV-1 (KOS). Mice were sacrificed after 4 and 7 days for HSV-1 detection. Immunohistochemistry was performed as described by Akhtar et al., Invest. Ophthalmol. Vis. Sci. 49:4026-4035 (2008). Briefly, tissue sections were hydrated with distilled water and antigen retrieval was performed using DAKO Target Retrieval Solution 10× concentrate (DAKO, Carpinteria, Calif.). Nonspecific staining was blocked using H2O2 solution for 10 minutes followed by a protein block for 10 minutes. Sections were incubated with HSV-1 gD specific antiserum (1:100 dilution) at room temperature for 1 hr followed by a 40-minute incubation with the secondary antibody (HRP-conjugated goat anti-rabbit IgG, 1:500; Sigma, St. Louis, Mo.). Expression of gD was detected using the DAKO Envision^+ kit. Confocal and differential interference contrast (DIC) image acquisition was conducted with an SB2-AOBS confocal microscope (Leica, Solms, Germany).
Immunohistochemistry was used to locate HSV-1 glycoprotein D (gD) expression in the cornea pre-treated with either a control peptide, G1 or G2 followed by HSV-1 infection. 100 μl of G1, G2, or Cp (control) peptide at 0.5 mM concentration was poured into the mouse cornea as a prophylactic “eye drop” followed by an infection with HSV-1 (KOS) at 10^6 PFU. At 4 or 7 days post infection, immunohistochemistry was performed using anti-HSV-1 gD polyclonal antibody.

[3] = 100 μl eye drop at 0.5 mM before 10^6 PFU, 4 and 7 days post infection

Row | Sequence | blocking of HSV-1 entry/infection (HSV-1 (KOS) gL86 [1]) | blocking of HSV-1 entry (HSV-1 (KOS) gL86 [2]) | HSV-1 protein (gD) expression in cornea (HSV-1 (KOS); [3]) | state of corneal epithelium (HSV-1 (KOS); [3]) | effectiveness in blocking entry compared with G1 (HSV-1 (KOS) gL86 [1]; in virtually all cases (FIGS. 1 and 2)) | HSV-1 gD staining in cornea (HSV-1 (KOS); 0.5 mM eye drop, day 4) | corneal inflammation (HSV-1 (KOS); 0.5 mM eye drop, day 4) | HSV-1 staining in cornea (HSV-1 (KOS); 0.5 mM eye drop, day 7) | state of corneal epithelium (HSV-1 (KOS); 0.5 mM eye drop, day 7)
1 | LRSRTKIIRIRH [G1, LRSRTKIIRIRH] | effective in blocking infection of individual cells | able to block HSV-1 entry | virtually no HSV-1 protein expression was detected | epithelium remained intact |  |  |  |  | 
2 | MPRRRRIRRRQK [G2, MPRRRRIRRRQK] | effective in blocking infection of individual cells | able to block HSV-1 entry | virtually no HSV-1 protein expression was detected | epithelium remained intact | slightly more effective in blocking entry than G1 |  |  |  | 
3 | RVCGSIGKEVLG [Cp, reference compound] | no effect on HSV-1 entry | did not inhibit HSV-1 entry |  |  |  | significant staining for HSV-1 gD | severe chronic inflammation | gone | damage to the corneal epithelium was still evident
